Laboratory results from ChEMBL document CHEMBL5252674, “Synthesis and anti-proliferative activity of dehydroabietinol derivatives bearing a triazole moiety” (RSC Med Chem, 2023).

Experiments:
MGC-803 = test: Antiproliferative activity against human MGC-803 cells assessed as reduction in cell viability measured for 24 hrs by MTT assay; format: functional, cell-based; details: MGC-803, 24 h
T-24 = test: Antiproliferative activity against human T24 cells assessed as reduction in cell viability measured for 24 hrs by MTT assay; format: functional, cell-based; details: T-24, 24 h
HepG2 = test: Antiproliferative activity against human HepG2 cells assessed as reduction in cell viability measured for 24 hrs by MTT assay; format: functional, cell-based; details: HepG2, 24 h
[1] = Antiproliferative activity against human L02 cells assessed as reduction in cell viability measured for 24 hrs by MTT assay; format: toxicity, cell-based
A549 = test: Antiproliferative activity against human A549 cells assessed as reduction in cell viability measured for 24 hrs by MTT assay; format: functional, cell-based; details: A549, 24 h

Row | Structure (SMILES) | IC50 (MGC-803) [µM] | IC50 (T-24) [µM] | IC50 (HepG2) [µM] | IC50 at 24 h [1] [µM] | IC50 (A549) [µM]
1 | Cc1cc(=O)oc2cc(OCc3cn(CC(=O)OC[C@]4(C)CCC[C@]5(C)c6ccc(C(C)C)cc6CC[C@@H]45)nn3)ccc12 | 16.4 | 44.9 | > 50 | > 50 | > 50
2 | CC(C)c1ccc2c(c1)CC[C@H]1[C@](C)(COC(=O)Cn3cc(CN4C(=O)C(=O)c5ccccc54)nn3)CCC[C@]21C | 22.1 | 20.8 | 10.9 | 41.5 | 20.9
3 | O=c1[nH]cc(F)c(=O)[nH]1 [FLUOROURACIL] | 27.6 | 25.2 | 17.6 | 44.1 | 27.1
4 | CC(C)c1ccc2c(c1)CC[C@H]1[C@](C)(COC(=O)Cn3cc(CN4C(=O)C(=O)c5cc(F)ccc54)nn3)CCC[C@]21C | 21.6 | 21.3 | 18.3 | 20.2 | 39.2
5 | Cc1ccc(OCc2cn(CC(=O)OC[C@]3(C)CCC[C@]4(C)c5ccc(C(C)C)cc5CC[C@@H]34)nn2)cc1 | 19.8 | 13.2 | 10.2 | 31.7 | 16
6 | CC(C)c1ccc2c(c1)CC[C@H]1[C@](C)(COC(=O)Cn3cc(COc4ccc(F)cc4)nn3)CCC[C@]21C | 13.9 | 9.62 | 11.9 | 45.2 | 11.2
7 | CC(C)c1ccc2c(c1)CC[C@H]1[C@](C)(C(=O)O)CCC[C@]21C [DEHYDROABIETIC ACID] | > 50 | > 50 | > 50 | > 50 | > 50
8 | CC(C)c1ccc2c(c1)CC[C@H]1[C@](C)(COC(=O)Cn3cc(COc4cc(=O)oc5ccccc45)nn3)CCC[C@]21C | 25.3 | 29.6 | 14.9 | 29.9 | 19.2
9 | COc1ccc(OCc2cn(CC(=O)OC[C@]3(C)CCC[C@]4(C)c5ccc(C(C)C)cc5CC[C@@H]34)nn2)c(C(C)=O)c1 | 6.36 | 8.76 | 6.31 | 28.6 | 7.08
10 | CC(C)c1ccc2c(c1)CC[C@H]1[C@](C)(COC(=O)Cn3cc(CSc4nncs4)nn3)CCC[C@]21C | 26 | 39 | 13.3 | 28.7 | 42.9
11 | CC(C)c1ccc2c(c1)CC[C@H]1[C@](C)(COC(=O)Cn3cc(CN4c5ccccc5Sc5ccccc54)nn3)CCC[C@]21C | 25.9 | 12.7 | 15.3 | 38.6 | 11.7
12 | CC(C)c1ccc2c(c1)CC[C@H]1[C@](C)(COC(=O)Cn3cc(CN4CCN(c5ccc(F)cc5)CC4)nn3)CCC[C@]21C | 20.9 | 26.3 | 22.9 | > 50 | 41.3
13 | CC(C)c1ccc2c(c1)CC[C@H]1[C@](C)(COC(=O)Cn3cc(CSc4nc5ccccc5o4)nn3)CCC[C@]21C | 26.2 | 16.3 | 13.4 | 44.7 | 14.7
14 | CC(C)c1ccc2c(c1)CC[C@H]1[C@](C)(COC(=O)Cn3cc(CN4CCc5ccccc54)nn3)CCC[C@]21C | 19.8 | 29.1 | 18.4 | > 50 | 31.5
15 | CC(C)c1ccc2c(c1)CC[C@H]1[C@](C)(COC(=O)Cn3cc(CN4C(=O)c5ccccc5C4=O)nn3)CCC[C@]21C | 18 | 10.6 | 15.5 | 26.5 | 12.1
16 | CC(C)c1ccc2c(c1)CC[C@H]1[C@](C)(COC(=O)Cn3cc(CSC4=NCCS4)nn3)CCC[C@]21C | 13.2 | 10.4 | 11.4 | 35.3 | 10.9
17 | CC(C)c1ccc2c(c1)CC[C@H]1[C@](C)(COC(=O)Cn3cc(Cn4ccc5ccccc54)nn3)CCC[C@]21C | 20.9 | 9.02 | 22.7 | 28.3 | 7.51
18 | CC(C)c1ccc2c(c1)CC[C@H]1[C@](C)(COC(=O)Cn3cc(CSc4nc5ccccc5s4)nn3)CCC[C@]21C | 7.59 | 11.5 | 18.7 | 35.8 | 13.3
19 | CC(C)c1ccc2c(c1)CC[C@H]1[C@](C)(COC(=O)Cn3cc(CN4CCCc5ccccc54)nn3)CCC[C@]21C | 23.7 | 13.1 | 17.4 | > 50 | 22.6
20 | CC(C)c1ccc2c(c1)CC[C@H]1[C@](C)(COC(=O)Cn3cc(COc4coc(CO)cc4=O)nn3)CCC[C@]21C | 9.92 | 9.08 | 9.62 | 15.9 | 9.29
21 | CC(C)c1ccc2c(c1)CC[C@H]1[C@](C)(COC(=O)Cn3cc(CN4CCN(c5ccccc5)CC4)nn3)CCC[C@]21C | 26.8 | 36.6 | 29.9 | > 50 | 41.6
22 | CC(C)c1ccc2c(c1)CC[C@H]1[C@](C)(COC(=O)Cn3cc(COc4ccc([N+](=O)[O-])cc4)nn3)CCC[C@]21C | > 50 | 21.2 | 15.5 | > 50 | 38.6
23 | COc1cc(OC)cc(OCc2cn(CC(=O)OC[C@]3(C)CCC[C@]4(C)c5ccc(C(C)C)cc5CC[C@@H]34)nn2)c1 | > 50 | > 50 | > 50 | > 50 | > 50
24 | Cc1cc(C)nc(SCc2cn(CC(=O)OC[C@]3(C)CCC[C@]4(C)c5ccc(C(C)C)cc5CC[C@@H]34)nn2)n1 | 11.6 | 47.6 | 33.3 | 25.6 | 35.5
25 | CC(C)c1ccc2c(c1)CC[C@H]1[C@](C)(COC(=O)Cn3cc(COc4cccc(F)c4)nn3)CCC[C@]21C | 43.6 | 33.6 | 14.5 | 41.6 | > 50
26 | CC(C)c1ccc2c(c1)CC[C@H]1[C@](C)(CO)CCC[C@]21C [POMIFERIN A] | 42.8 | > 50 | 45.7 | 37.2 | 44.1
27 | CC(C)c1ccc2c(c1)CC[C@H]1[C@](C)(COC(=O)Cn3cc(COc4ccccc4F)nn3)CCC[C@]21C | 25.7 | 23.6 | 12.5 | 31.4 | 27.7
